Test results: patent US12036281B2 (ONEHEALTHCOMPANY, INC., priority 2019, dated 2024)

Legend:
[1] = system: cancer; experiment: Treatment of canine cancers with targeted drug, disease progression and overall survival compared to historical controls; format: in vivo; conditions: alone or in combination with other anti-cancer agents
Description: (§1) Canine subjects with cancer were treated with Rapamycin alone or in combination with other anti-cancer agents (Tables 3 and 12-26). The subjects were administered Rapamycin orally with a starting dose of 0.1 mg/kg/day and were monitored for disease progression compared to historical controls.
Canine subjects with cancer were treated with Dasatinib alone or in combination with other anti-cancer agents (Tables 4 and 12-26). The subjects were administered Dasatinib orally with a starting dose of 0.5-0.7 mg/kg/day and were monitored for disease progression compared to historical controls.
as §1, with “Vorinostat” for “Rapamycin”, “7” for “3”, “30-60 mg/kg/every other day” for “0.1 mg/kg/day”
as §1, with “Crizotinib” for “Rapamycin”, “(Table 9” for “(Tables 3”, “1 mg/kg/day-2” for “0.1”
as §1, with “Sorafenib” for “Rapamycin”, “10” for “3”, “1 mg/kg/day-3” for “0.1”, “mg/kg/day or 1 mg/kg/day-3 mg/kg/week” for “mg/kg/day”

[2] = Number and type of adverse effects reported in treated canines; format: in vivo; conditions: canine subjects with cancer; for subjects with clinically reported outcomes that experienced adverse effects: diarrhea, vomiting, inappetence, lethargy, skin lesions, liver enzymes, cardiac toxicity, hemorrhagic gastroenteritis monitored, cohorts 192, 94, 162, 275, 89, 83, 9 subjects
Description: Canine subjects with cancer were treated with pharmaceutical compositions comprising Rapamycin and were monitored for adverse effects including: diarrhea, vomiting inappetence, lethargy, skin lesions, progressive liver enzyme evaluations, increased cardiac toxicity and hemorrhagic gastroenteritis.
Canine subjects with cancer were treated with pharmaceutical compositions comprising Dasatinib and were monitored for adverse effects including: diarrhea, vomiting inappetence, lethargy, skin lesions, progressive liver enzyme evaluations, increased cardiac toxicity and hemorrhagic gastroenteritis.
Canine subjects with cancer were treated with pharmaceutical compositions comprising Vorinostat and were monitored for adverse effects including: diarrhea, vomiting inappetence, lethargy, skin lesions, progressive liver enzyme evaluations, increased cardiac toxicity and hemorrhagic gastroenteritis.
Canine subjects with cancer were treated with pharmaceutical compositions comprising Crizotinib and were monitored for adverse effects including: diarrhea, vomiting inappetence, lethargy, skin lesions, progressive liver enzyme evaluations, increased cardiac toxicity and hemorrhagic gastroenteritis.
Canine subjects with cancer were treated with pharmaceutical compositions comprising Sorafenib and were monitored for adverse effects including: diarrhea, vomiting inappetence, lethargy, skin lesions, progressive liver enzyme evaluations, increased cardiac toxicity and hemorrhagic gastroenteritis.

Structure (SMILES)	subjects with clinically reported outcomes that experienced adverse effects [2] [%]	further results
O=C(CCCCCCC(=O)Nc1ccccc1)NO [Vorinostat]	34	overall survival compared to control subjects ([1]; Vorinostat orally, starting dose 30-60 mg/kg/every other day): significant improvement
CS(=O)(=O)CCNCc1ccc(-c2ccc3ncnc(Nc4ccc(OCc5cccc(F)c5)c(Cl)c4)c3c2)o1 [Lapatinib]	22	overall survival compared to control subjects ([1]; Lapatinib orally, starting dose 5-10 mg/kg/day): significant improvement
Cc1nc(Nc2ncc(C(=O)Nc3c(C)cccc3Cl)s2)cc(N2CCN(CCO)CC2)n1 [Dasatinib]	31	–
Cc1ccc(NC(=O)c2ccc(CN3CCN(C)CC3)cc2)cc1Nc1nccc(-c2cccnc2)n1 [Imatinib]	–	overall survival compared to control subjects ([1]; Imatinib orally, starting dose 10 mg/kg/day): significant improvement
C[C@@H](Oc1cc(-c2cnn(C3CCNCC3)c2)cnc1N)c1c(Cl)ccc(F)c1Cl [Crizotinib]	43	overall survival compared to control subjects ([1]; Crizotinib orally, starting dose 1 mg/kg/day-2 mg/kg/day): significant improvement
CO[C@H]1C[C@@H]2CC[C@@H](C)[C@@](O)(O2)C(=O)C(=O)N2CCCC[C@H]2C(=O)O[C@H]([C@H](C)C[C@@H]2CC[C@@H](O)[C@H](OC)C2)CC(=O)[C@H](C)/C=C(\C)[C@@H](O)[C@@H](OC)C(=O)[C@H](C)C[C@H](C)/C=C/C=C/C=C/1C [Rapamycin]	21	–
CNC(=O)c1cc(Oc2ccc(NC(=O)Nc3ccc(Cl)c(C(F)(F)F)c3)cc2)ccn1 [Sorafenib]	–	overall survival compared to control subjects ([1]; Sorafenib orally, starting dose 1 mg/kg/day-3 mg/kg/day or 1 mg/kg/day-3 mg/kg/week): significant improvement; subjects with clinically reported outcomes that experience adverse effects ([2]; result in words): A minority of subjects
CC(=O)Nc1cccc(-n2c(=O)n(C3CC3)c(=O)c3c(Nc4ccc(I)cc4F)n(C)c(=O)c(C)c32)c1 [Trametinib]	24	–
